Measured values published in patent publication US20250340570A1, “COMPOSITIONS USEFUL FOR MODULATING SPLICING” (Skyhawk Therapeutics, Inc., priority 2022, published 2025).

Experiments:
[1] = test system: ATXN3 transcripts containing exon 4; assay: ATXN3 quantitative splicing assay (qPCR, E4E5 transcripts containing exon 4); format: cell-based; conditions: Human neuroblastoma SK-N-MC cells, 24 h treatment, qPCR primers/probe E4E5
Method: Human neuroblastoma SK-N-MC cells were plated in 384-well plates at 20,000 cells/well. Twenty-four hours after plating, cells were treated with compounds for 24 h at appropriate concentrations ranging from 30 μM to 0.6 nM (0.3% DMSO). Treated cells were lysed in 15 μL of lysis buffer, and cDNA was synthesized using the Fast Advanced Cells-to-Ct kit. Two μL of each cDNA was used in qPCR reactions to confirm the exon 4 skipped transcripts of ATXN3. A second set of primers/probe E4E5 was used to detect the transcripts containing exon 4. The third set of primers/probe E8E9 was used to detect total gene level of ATXN3. The qPCR reactions were prepared in 384-well plates in 10.L volume, using TaqMan™ Fast Advanced Master Mix with primers and probes shown in the table below. Reactions were run in a Quant Studio 6 qPCR instrument with default settings.
The primers and probes are listed below in Table 5.

total ATXN3 protein = assay: ATXN3 total protein assay (Mesoscale Discovery); format: cell-based; conditions: Human neuroblastoma SK-N-MC cells, 48 hours incubation, MSD assay
Method: Human neuroblastoma SK-N-MC cells were seeded at 10,000 cells/well in 384 well plates one day prior to compound treatment. The concentrations of compounds were tested at appropriate doses ranging from 30 µM to 0.6 nM. After incubation for 48 hours, the cells were lysed with 25.L of lysis buffer containing protease inhibitors, and total ATXN3 protein levels were assessed by Mesoscale Discovery (MSD) assay developed with one pair of and-ATXN3 antibodies. The capture and detect antibodies were raised in mouse and rabbit respectively. Anti-rabbit MSD-ST antibody was used for secondary antibody.
ATXN3 recombinant protein was used for standards. The readouts were captured with 35.L of MSD read buffer and multi-array 384-well high binding plates.

| SMILES | IC50 [1] | IC50 (total ATXN3 protein) |
| --- | --- | --- |
| Cc1csc2c(NCc3ccncc3)snc12 [Compound 1, [(4-pyridyl)methyl](8-methyl-3,6-dithia-2-azabicyclo[3.3.0]octa-1,4,7-trien-4-yl)amine] | 10 to 40 µM | 10 to 40 µM |
| Cc1csc2c(NCc3ccccc3)snc12 [Compound 3, (benzyl)(8-methyl-3,6-dithia-2-azabicyclo[3.3.0]octa-1,4,7-trien-4-yl)amine] | 10 to 40 µM | 10 to 40 µM |
| Cc1csc2c(NCc3ccco3)snc12 [Compound 4, (furfuryl)(8-methyl-3,6-dithia-2-azabicyclo[3.3.0]octa-1,4,7-trien-4-yl)amine] | 10 to 40 µM | 10 to 40 µM |
| Cc1c(C[C@H](C)N)sc2c(NCc3ccccc3)snc12 [Compound 5, 7-[(S)-2-aminopropyl]-4-benzylamino-8-methyl-3,6-dithia-2-azabicyclo[3.3.0]octa-1,4,7-triene] | 5 to 10 µM | 0.501 to 5 µM |
| Cc1c(C[C@H](C)N)sc2c(NCc3ccco3)snc12 [Compound 6, 7-[(S)-2-aminopropyl]-4-(furfurylamino)-8-methyl-3,6-dithia-2-azabicyclo[3.3.0]octa-1,4,7-triene] | 0.501 to 5 µM | 0.501 to 5 µM |
| Cc1c(C[C@H](C)N)sc2c(NCc3cccs3)snc12 [Compound 7, 7-[(S)-2-aminopropyl]-8-methyl-4-thenylamino-3,6-dithia-2-azabicyclo[3.3.0]octa-1,4,7-triene] | 0.501 to 5 µM | 0.501 to 5 µM |
| Cc1c(C[C@@H](N)CC2CC2)sc2c(NCc3cccs3)snc12 [Compound 8, 7-[(S)-2-amino-3-cyclopropylpropyl]-8-methyl-4-thenylamino-3,6-dithia-2-azabicyclo[3.3.0]octa-1,4,7-triene] | 5 to 10 µM | 5 to 10 µM |
| Cc1c(C[C@@H](N)CC2CC2)sc2c(NCc3ccco3)snc12 [Compound 9, 7-[(S)-2-amino-3-cyclopropylpropyl]-4-(furfurylamino)-8-methyl-3,6-dithia-2-azabicyclo[3.3.0]octa-1,4,7-triene] | 0.501 to 5 µM | 0.501 to 5 µM |
| Cc1c(C[C@@H](N)CF)sc2c(NCc3cccs3)snc12 [Compound 10, 7-[(R)-2-amino-3-fluoropropyl]-8-methyl-4-thenylamino-3,6-dithia-2-azabicyclo[3.3.0]octa-1,4,7-triene] | 0.501 to 5 µM | 0.501 to 5 µM |
| C[C@H](N)Cc1sc2c(NCc3cccs3)snc2c1Cl [Compound 17, 7-[(S)-2-aminopropyl]-8-chloro-4-thenylamino-3,6-dithia-2-azabicyclo[3.3.0]octa-1,4,7-triene] | 0.501 to 5 µM | 0.101 to 0.5 µM |
| C[C@H](N)Cc1sc2c(NCc3cccs3)snc2c1Br [Compound 18, 7-[(S)-2-aminopropyl]-8-bromo-4-thenylamino-3,6-dithia-2-azabicyclo[3.3.0]octa-1,4,7-triene] | 0.101 to 0.5 µM | 0.101 to 0.5 µM |
| C[C@H](N)Cc1sc2c(NCc3cccs3)snc2c1C#N [Compound 19, 7-[(S)-2-aminopropyl]-4-thenylamino-3,6-dithia-2-azabicyclo[3.3.0]octa-1,4,7-triene-8-carbonitrile] | 0.501 to 5 µM | 0.501 to 5 µM |
| C[C@H](N)Cc1sc2c(NCc3cccs3)snc2c1C1CC1 [Compound 20, 7-[(S)-2-aminopropyl]-8-cyclopropyl-4-thenylamino-3,6-dithia-2-azabicyclo[3.3.0]octa-1,4,7-triene] | 10 to 40 µM | 10 to 40 µM |
| C=Cc1c(C[C@H](C)N)sc2c(NCc3cccs3)snc12 [Compound 21, 5-[(2S)-2-aminopropyl]-6-ethenyl-N-(thiophen-2-ylmethyl) thieno[3,2-c][1,2]thiazol-3-amine] | 10 to 40 µM | 10 to 40 µM |
| C[C@H](N)Cc1sc2c(NCc3ccco3)snc2c1Cl [Compound 23, 7-[(S)-2-aminopropyl]-8-chloro-4-(furfurylamino)-3,6-dithia-2-azabicyclo[3.3.0]octa-1,4,7-triene] | 0.101 to 0.5 µM | 0.101 to 0.5 µM |
| C[C@H](N)Cc1sc2c(NCc3ccco3)snc2c1Br [Compound 24, 7-[(S)-2-aminopropyl]-8-bromo-4-(furfurylamino)-3,6-dithia-2-azabicyclo[3.3.0]octa-1,4,7-triene] | 0.101 to 0.5 µM | 0.101 to 0.5 µM |
| C[C@H](N)Cc1sc2c(NCc3ccco3)snc2c1O [Compound 25, 7-[(S)-2-aminopropyl]-4-(furfurylamino)-3,6-dithia-2-azabicyclo[3.3.0]octa-1,4,7-trien-8-ol] | 10 to 40 µM | 10 to 40 µM |
| COc1c(C[C@H](C)N)sc2c(NCc3ccco3)snc12 [Compound 26, 5-[(2S)-2-aminopropyl]-N-(furan-2-ylmethyl)-6-methoxythieno[3,2-c][1,2]thiazol-3-amine] | 5 to 10 µM | 5 to 10 µM |
| C[C@H](N)Cc1sc2c(NCc3cccs3)snc2c1O [Compound 27, 7-[(S)-2-aminopropyl]-4-thenylamino-3,6-dithia-2-azabicyclo[3.3.0]octa-1,4,7-trien-8-ol] | 10 to 40 µM | 10 to 40 µM |
| COc1c(C[C@H](C)N)sc2c(NCc3cccs3)snc12 [Compound 28, 7-[(S)-2-aminopropyl]-8-methoxy-4-thenylamino-3,6-dithia-2-azabicyclo[3.3.0]octa-1,4,7-triene] | 5 to 10 µM | 10 to 40 µM |
| C[C@H](N)Cc1sc2c(NCc3cccs3)snc2c1F [Compound 30, 7-[(S)-2-aminopropyl]-8-fluoro-4-thenylamino-3,6-dithia-2-azabicyclo[3.3.0]octa-1,4,7-triene] | 5 to 10 µM | 10 to 40 µM |
| C[C@H](N)Cc1sc2c(NCc3ccco3)snc2c1C1CC1 [Compound 31, 7-[(S)-2-aminopropyl]-8-cyclopropyl-4-(furfurylamino)-3,6-dithia-2-azabicyclo[3.3.0]octa-1,4,7-triene] | 5 to 10 µM | 5 to 10 µM |
| C[C@H](N)Cc1sc2c(NCc3cccs3)snc2c1C(F)(F)F [Compound 35, 7-[(S)-2-aminopropyl]-4-thenylamino-8-(trifluoromethyl)-3,6-dithia-2-azabicyclo[3.3.0]octa-1,4,7-triene] | 0.501 to 5 µM | 0.501 to 5 µM |
| Cc1c(C[C@@H](N)CC(F)(F)F)sc2c(NCc3cccs3)snc12 [Compound 36, 7-[(S)-2-amino-4,4,4-trifluorobutyl]-8-methyl-4-thenylamino-3,6-dithia-2-azabicyclo[3.3.0]octa-1,4,7-triene] | 0.501 to 5 µM | 0.501 to 5 µM |
| Cc1c(C[C@@H](N)CO)sc2c(NCc3cccs3)snc12 [Compound 37, (R)-2-amino-3-(8-methyl-4-thenylamino-3,6-dithia-2-azabicyclo[3.3.0]octa-1,4,7-trien-7-yl)-1-propanol] | 0.501 to 5 µM | 0.501 to 5 µM |
| N[C@H](Cc1sc2c(NCc3cccs3)snc2c1Cl)CC(F)(F)F [Compound 38, 7-[(S)-2-amino-4,4,4-trifluorobutyl]-8-chloro-4-thenylamino-3,6-dithia-2-azabicyclo[3.3.0]octa-1,4,7-triene] | 0.501 to 5 µM | 0.501 to 5 µM |
| N[C@H](Cc1sc2c(NCc3cccs3)snc2c1Br)CC(F)(F)F [Compound 39, 7-[(S)-2-amino-4,4,4-trifluorobutyl]-8-bromo-4-thenylamino-3,6-dithia-2-azabicyclo[3.3.0]octa-1,4,7-triene] | 0.501 to 5 µM | 0.501 to 5 µM |
